Laboratory results: patent US9107816B2, “Implantable device for controlled dissolution and diffusion of low solubility drug” (TARIS BIOMEDICAL LLC, priority 2011, dated 2015)

Experiment: In vitro release of mitomycin C from housing module (100% MMC tablets)
Type: physicochemical
Conditions: 100% MMC tablet, one face exposed, 20 mL deionized water at 37° C., replenished daily, 8 days, n=3, FIG. 43
Procedure: The diameter of the tablets was either 2.1 mm or 2.6 mm with the height of 2 mm. The mass of the tablet was approximately 10 mg for 2.1 mm diameter tablet and 16 mg for 2.6 mm diameter tablet.
Housing modules were made from segments of silicone tube and silicone adhesive. […] The surface ‘b’ of tablet 402 was surrounded by silicone tube 406 and the surface ‘c’ was in contact with silicone adhesive 408.
Specifically, the housing module 400 was submerged in 20 mL deionized water at 37° C., with the release medium being entirely replenished daily during the test period. The cumulative release of MMC was measure over the test period. In vitro release data is shown in FIG. 43 (n=3; the error bars indicate S.D. around the mean.) (Some error bars are not shown, i.e., when they are smaller than the symbols.).

## CO[C@@]12[C@H](COC(N)=O)C3=C(C(=O)C(C)=C(N)C3=O)N1C[C@@H]1N[C@@H]12 [MMC, mitomycin C]
  cumulative release of MMC (release kinetics): near zero order release was achieved until the tablet was all eroded
